Source: PubChem BioAssay AID2060508 (Molecular Pharmacology Branch, DTP, NCI, 2025)
pIC50: −log10 of the molar value. Values joined by “and” are separate entries in the source; they are usually repeats but may differ in a detail not shown here. Equal entries are not always repeated.

System: 454973-116-R2-J3-PDC spheroids, viability, % test/control
Test: Anticancer human tumor 454973-116-R2-J3-PDC patient-derived pancreatic carcinoma cell line growth inhibition [GQUAD]
Details: spheroids with HUVEC and MSC; for viability, T/C: stronger effect = lower value
Source text: DNA G-quadruplex Stabilizer Agents in Combinations in Complex Spheroids
A high-throughput screen of multi-cell type tumor spheroids was designed to identify active combinations of DNA G-quadruplex stabilizer agents and targeted small molecules. Complex spheroids include a stromal component modeled by human endothelial cells (HUVEC) and fibroblasts modeled by human mesenchymal stem cells (MSCs). The concentration ranges selected for each drug and investigational agent were based upon clinically achievable concentrations if the clinical Cmax of the agent was known.
Compounds. The drugs and investigational agents: pidnarulex (CX-5461; NSC782164), APTO-253 (NSC789042), BRACO-19 (NSC847499), peposertib (NSC802822), ceralasertib (NSC780249), elimusertib (NSC800525), camonsertib (NSC841442), AZD-1390 (NSC803789), olaparib (NSC753686), talazoparib (NSC767125), ART-558 (NSC835418), sotorasib (NSC818433), MRTX-1133 (NSC836407), SN-38 (NSC673596), topotecan (NSC609699), etoposide (NSC141540), doxorubicin (NSC123127), gemcitabine (NSC613327), 5-fluorouracil (NSC19893), paclitaxel (NSC125973), vemurafenib (NSC761431), panobinostat (NSC761190), R-306465 (JNJ-16241199; NSC773264), adavosertib (NSC754352), TP-3654 (NSC805149), carboplatin (NSC241240), KSQ-4279 (NSC840948), and staurosporine (NSC755774) were obtained from the National Cancer Institute (NCI) Developmental Therapeutics Program Chemical Repository (34). The FDA-approved anticancer drug set is available from the NCI Developmental Therapeutics Program. […] The stock solutions were prepared in dimethyl sulfoxide (DMSO, Sigma-Aldrich, St. Louis, MO, cat. D2650) at 800-fold the tested concentration and stored at -70 degrees C prior to their use. All drugs and investigational agents were tested over a range starting from a high concentration at or near the clinical Cmax and decreasing in half-log increments. If the clinical Cmax for an agent had not been determined, the highest concentration tested was 10 microM.
2.3 Cell Culture. All cells were maintained in an incubator at 37 degrees C and 5% CO2 with 95% humidity. The PDC lines were cultured according to standard operating procedures established by the NCI PDMR. All PDCs were thawed and cultured in Matrigel-coated flasks prepared with a working solution of 1X Ham's F-12 nutrient mix, without supplementation (Invitrogen, cat. 11765054), 100 U/mL penicillin-streptomycin (Invitrogen, cat. 15140122), and 2.5% Matrigel (Corning Inc., cat. 354248) for the first three passages. The 857933-349-R-J2-PDC line was cultured in 6C/Colon 1B media, which includes advanced DMEM/F-12 (Thermo Fisher Scientific, cat. 12634028), 10 mM HEPES (Thermo Fisher Scientific, cat. 15630080), 1X GlutaMAX supplement (Thermo Fisher Scientific, cat. 35050061), 0.1 mg/mL primocin (InvivoGen, cat. ant-pm-2), 10% defined fetal bovine serum, heat inactivated (HyClone Laboratories Inc., cat. SH30070.03HI), 50% L-WRN conditioned media (ATCC, cat. CRL-3276), 1.25 mM N-Acetyl-L-cysteine (Sigma-Aldrich, cat. A9165), 10 mM nicotinamide (Sigma-Aldrich, cat. N0636), 1X B-27 supplement (Thermo Fisher Scientific, cat. 17504044), 1X N-2 supplement (Thermo Fisher Scientific, cat. 17502048), 10 microM Y-27632 dihydrochloride (Tocris Bioscience, cat. 1254), and 50 ng/mL human EGF recombinant protein (Thermo Fisher Scientific, cat. PHG0311). The 485176-168-R4-J1-PDC line was cultured in Panc media, which includes all 6C/Colon 1B media components plus 100 ng/mL human FGF-10 (Thermo Fisher Scientific, cat. 100-26), 500 nM SB-431542 (Selleckchem, cat. S1067), and gastrin (Tocris, cat. 3006).
[…]
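Further: spheroids exposed to compounds for seven days.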

## Cc1[nH]c2ccccc2c1CCNCc1ccc(/C=C/C(=O)NO)cc1 + Cc1cnc(CNC(=O)c2c(=O)c3ccc(N4CCCN(C)CC4)nc3n3c2sc2ccccc23)cn1
Curve of first compound, second compound 0.0316 µM
  pIC50: 7.22
Curve of first compound, second compound 0.1 µM
  pIC50: 7.24
Curve of first compound, second compound 0.316 µM
  pIC50: 7.30
Curve of first compound, second compound 1 µM
  pIC50: 7.38
Curve of first compound, second compound 3.16 µM
  pIC50: 7.46
Curve of first compound, second compound 10 µM
  pIC50: > 9.00
Second compound 0.0316 µM, first compound 0.000999 µM
  viability, T/C: 96%
Second compound 0.0316 µM, first compound 0.00316 µM
  viability, T/C: 97.9%
Second compound 0.0316 µM, first compound 0.00999 µM
  viability, T/C: 106%
Second compound 0.0316 µM, first compound 0.0316 µM
  viability, T/C: 76.2%
Second compound 0.0316 µM, first compound 0.0999 µM
  viability, T/C: 27.9%
Second compound 0.0316 µM, first compound 0.316 µM
  viability, T/C: 3.29%
Second compound 0.1 µM, first compound 0.000999 µM
  viability, T/C: 84.4%
Second compound 0.1 µM, first compound 0.00316 µM
  viability, T/C: 74.9%
Second compound 0.1 µM, first compound 0.00999 µM
  viability, T/C: 79.2%
Second compound 0.1 µM, first compound 0.0316 µM
  viability, T/C: 69.8%
Second compound 0.1 µM, first compound 0.0999 µM
  viability, T/C: 31.1%
Second compound 0.1 µM, first compound 0.316 µM
  viability, T/C: 4.46%
Second compound 0.316 µM, first compound 0.000999 µM
  viability, T/C: 69.7%
Second compound 0.316 µM, first compound 0.00316 µM
  viability, T/C: 71.8%
Second compound 0.316 µM, first compound 0.00999 µM
  viability, T/C: 74.2%
Second compound 0.316 µM, first compound 0.0316 µM
  viability, T/C: 67.1%
Second compound 0.316 µM, first compound 0.0999 µM
  viability, T/C: 24.9%
Second compound 0.316 µM, first compound 0.316 µM
  viability, T/C: 2.72%
Second compound 1 µM, first compound 0.000999 µM
  viability, T/C: 61.3%
Second compound 1 µM, first compound 0.00316 µM
  viability, T/C: 63.2%
Second compound 1 µM, first compound 0.00999 µM
  viability, T/C: 61.5%
Second compound 1 µM, first compound 0.0316 µM
  viability, T/C: 57.1%
Second compound 1 µM, first compound 0.0999 µM
  viability, T/C: 27.5%
Second compound 1 µM, first compound 0.316 µM
  viability, T/C: 0.21%
Second compound 3.16 µM, first compound 0.000999 µM
  viability, T/C: 56.4%
Second compound 3.16 µM, first compound 0.00316 µM
  viability, T/C: 64.3%
Second compound 3.16 µM, first compound 0.00999 µM
  viability, T/C: 59.1%
Second compound 3.16 µM, first compound 0.0316 µM
  viability, T/C: 52.4%
Second compound 3.16 µM, first compound 0.0999 µM
  viability, T/C: 21%
Second compound 3.16 µM, first compound 0.316 µM
  viability, T/C: 0.16%
Second compound 10 µM, first compound 0.000999 µM
  viability, T/C: 0.26%
Second compound 10 µM, first compound 0.00316 µM
  viability, T/C: 19.2%
Second compound 10 µM, first compound 0.00999 µM
  viability, T/C: 43.2%
Second compound 10 µM, first compound 0.0316 µM
  viability, T/C: 31.6%
Second compound 10 µM, first compound 0.0999 µM
  viability, T/C: 0.77%
Second compound 10 µM, first compound 0.316 µM
  viability, T/C: 0.47%

## Cn1ncnc1[C@H]1c2n[nH]c(=O)c3cc(F)cc(c23)N[C@@H]1c1ccc(F)cc1
Compound 0.000999 µM
  viability, T/C: 105% and 108% and 102%
Compound 0.00316 µM
  viability, T/C: 95.6% and 90.5% and 93.4%
Compound 0.00999 µM
  viability, T/C: 93.2% and 92.4% and 94.9%
Compound 0.0316 µM
  viability, T/C: 90.5% and 84.5% and 95%
Compound 0.0999 µM
  viability, T/C: 87.5% and 93.9% and 86.8%
Compound 0.316 µM
  viability, T/C: 82.2% and 77.3% and 78.9%
Curve of compound
  pIC50: < 6.50
